Test results as given in PubChem BioAssay (NCI).
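Values below derive from 48-hour exposures of cells grown in 96-well plates, with endpoints linearly interpolated between the two concentrations bracketing the appropriate inhibition level. At the TGI there is no net growth.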

Legend:
Assay in all cases: inhibition of tumour cell growth, NCI panel, 48 h
KM20L2 colon = tested on: KM20L2 colon
SF-539 CNS = tested on: SF-539 CNS
A549 NSCLC = tested on: A549 NSCLC
SN12C renal = tested on: SN12C renal
SK-MEL-5 melanoma = tested on: SK-MEL-5 melanoma
DMS 273 small cell lung = tested on: DMS 273 small cell lung
SNB-78 CNS = tested on: SNB-78 CNS
HCC-2998 colon = tested on: HCC-2998 colon
LXFL 529 NSCLC = tested on: LXFL 529 NSCLC
SK-MEL-28 melanoma = tested on: SK-MEL-28 melanoma
SK-MEL-2 melanoma = tested on: SK-MEL-2 melanoma
HS 578T breast = tested on: HS 578T breast
MDA-N = tested on: MDA-N
DU-145 prostate = tested on: DU-145 prostate
SK-OV-3 ovarian = tested on: SK-OV-3 ovarian
PC-3 prostate = tested on: PC-3 prostate
MALME-3M melanoma = tested on: MALME-3M melanoma
NCI-H522 lung = tested on: NCI-H522 lung
MDA-MB-435 = tested on: MDA-MB-435
CAKI-1 renal = tested on: CAKI-1 renal

Row | SMILES | TGI (KM20L2 colon) [µM] | TGI (SF-539 CNS) [µM] | TGI (A549 NSCLC) [µM] | TGI (SN12C renal) [µM] | TGI (SK-MEL-5 melanoma) [µM] | TGI (DMS 273 small cell lung) [µM] | TGI (SNB-78 CNS) [µM] | TGI (HCC-2998 colon) [µM] | TGI (LXFL 529 NSCLC) [µM] | TGI (SK-MEL-28 melanoma) [µM] | TGI (SK-MEL-2 melanoma) [µM] | TGI (HS 578T breast) [µM] | TGI (MDA-N) [µM] | TGI (DU-145 prostate) [µM] | TGI (SK-OV-3 ovarian) [µM] | TGI (PC-3 prostate) [µM] | TGI (MALME-3M melanoma) [µM] | TGI (NCI-H522 lung) [µM] | TGI (MDA-MB-435) [µM] | TGI (CAKI-1 renal) [µM]
1 | CC1(Cl)CC2C(CC1Sc1nnnn1-c1ccccc1)C2(C)C (stereo not given) | > 100 | > 100 | > 100 | > 100 | > 100 | > 100 | > 100 | > 100 | > 100 | > 100 | > 100 |  |  |  |  |  |  |  |  | 
2 | Clc1ccc(N=c2oc3ccccc3cc2-c2nc3ccccc3[nH]2)c(Cl)c1 |  |  |  |  |  |  |  |  |  |  |  | 78.3 | > 100 | > 100 | > 100 | > 100 | > 100 | > 100 | > 100 | > 100
